Where a name gives a salt, the structure may show the parent alone. Read-outs that look alike come from different tables or passages of the source.
Columns and labels:
[1] = Solubility of the amide linking reagents in organic solvents; type: physicochemical; details: for solubility: organic solvent or mixture, thermodynamic from solid
Procedure: All solubility determinations are carried out in a tared gas-tight 4 ml bottle with magnetic stirrer bar. The amide linking reagent (at least 5 mg) is weighed out and a certain amount of the solvent to be investigated is added. The mixture is stirred for 2-5 minutes. If undissolved solid is still present, solvent (50-100 μl) is additionally added, and the mixture is stirred again. As soon as a clear solution is present, the experiment is terminated.

[2] = solvent 9CH2Cl2:1CH3CN, read-out: solubility in 9CH2Cl2:1CH3CN
[3] = solvent CH2Cl2, read-out: solubility in CH2Cl2
[4] = solvent CH3CN, read-out: solubility in CH3CN
[5] = solvent DMF, read-out: solubility in DMF
[6] = solvent Hexane, read-out: solubility in Hexane
[7] = solvent THF, read-out: solubility in THF
[8] = solvent Toluene, read-out: solubility in Toluene

Row | Compound | solubility in 9CH2Cl2:1CH3CN ([1]; solvent 9CH2Cl2:1CH3CN) | solubility in CH2Cl2 ([1]; solvent CH2Cl2) | solubility in CH3CN ([1]; solvent CH3CN) | solubility in DMF ([1]; solvent DMF) | solubility in Hexane ([1]; solvent Hexane) | solubility in THF ([1]; solvent THF) | solubility in Toluene ([1]; solvent Toluene) | solubility [1, 2] | solubility [1, 3] | solubility [1, 4] | solubility [1, 5] | solubility [1, 6] | solubility [1, 7] | solubility [1, 8] | melting point | solubility in the nonpolar solvents hexane and toluene compared with the BF4/PF6 analogue ([1]; hexane and toluene)
1 | CN(C)C(Oc1c(F)c(F)c(F)c(F)c1F)=[N+](C)C.F[P-](F)(F)(F)(F)F [PfTU, O-pentafluorophenyl-N,N,N′,N′-tetramethyluronium hexafluorophosphate, reference compound] | 2.5 mg/mL | <1.2 mg/mL | 1000 mg/mL | 1000 mg/mL | <1.2 mg/mL | <1.2 mg/mL | <1.2 mg/mL |  |  |  |  |  |  |  |  | 
2 | [O-][n+]1nn(C(N2CCCC2)=[N+]2CCCC2)c2ccccc21 [BPyU-FAP, 1-(Pyrrolidino(pyrrolidinium-1-ylidene)methyl)-1H-benzo[d]-1,2,3-triazole 3-oxide tris(pentafluoroethyl)trifluorophosphate] |  |  |  |  |  |  |  | 190 mg/mL | 57 mg/mL | > 1020 mg/mL | > 1100 mg/mL | < 1.2 mg/mL | 510 mg/mL | < 1.2 mg/mL |  | 
3 | 1-(Dimethylamino(dimethylammonium-1-ylidene)methyl)-1H-benzo[d]-1,2,3-triazole 3-oxide tris(pentafluoroethyl)trifluorophosphate [BTU-FAP] | 120 mg/mL | 6.9 mg/mL | >1040 mg/mL | >1200 mg/mL | <1.2 mg/mL | 364 mg/mL | <1.2 mg/mL |  |  |  |  |  |  |  |  | 
4 | CN(C)[P+](On1nnc2ccccc21)(N(C)C)N(C)C.F[P-](F)(F)(F)(F)F [BOP, (benzotriazol-1-yloxy)tris(dimethylamino)phosphonium hexafluorophosphate, reference compound] |  |  |  |  |  |  |  | > 335 mg/mL | > 380 mg/mL | 510 mg/mL | 660 mg/mL | < 1.2 mg/mL | < 4.2 mg/mL | < 1.2 mg/mL |  | 
5 | [O-][n+]1nn(C(N2CCCC2)=[N+]2CCCC2)c2ccccc21 (as salt: phosphate) [BPyU-FAP, 1-(Pyrrolidino(pyrrolidinium-1-ylidene)methyl)-1H-benzo[d]-1,2,3-triazole 3-oxide tris(pentafluoroethyl)trifluorophosphate] |  |  |  |  |  |  |  |  |  |  |  |  |  |  | 173 °C (dec.) | 
6 | O-(3,4-Dihydro-4-oxo-1,2,3-benzotriazin-3-yl)-N,N,N,N′-tetramethyluronium tris(pentafluoroethyl)trifluorophosphate [DBTU-FAP] | 480 mg/mL | >780 mg/mL | >860 mg/mL | >1125 mg/mL | <1.2 mg/mL | >780 mg/mL | <1.2 mg/mL |  |  |  |  |  |  |  |  | 
7 | CN(C)C(ON1C(=O)CCC1=O)=[N+](C)C.F[B-](F)(F)F [TSTU, O—(N-succinimidyl)-N,N,N′,N′-tetramethyluronium tetrafluoroborate, reference compound] | 2.9 mg/mL | <1.2 mg/mL | 265 mg/mL | 220 mg/mL | <1.2 mg/mL | <1.2 mg/mL | <1.2 mg/mL |  |  |  |  |  |  |  |  | 
8 | F[P-](F)(F)(F)(F)F.c1cnc2c(c1)nnn2O[P+](N1CCCC1)(N1CCCC1)N1CCCC1 [PyAOP, (7-azabenzotriazol-1-yloxy)tris(pyrrolidino)phosphonium hexafluorophosphate, reference compound] |  |  |  |  |  |  |  | 670 mg/mL | 1000 mg/mL | 1000 mg/mL | 670 mg/mL | < 1.2 mg/mL | 6 mg/mL | < 1.2 mg/mL |  | 
9 | (Benzotriazol-1-yloxy)tris(dimethylamino)phosphonium tris(pentafluoroethyl)trifluorophosphate [BOP-FAP] | >800 mg/mL | >1040 mg/mL | >700 mg/mL | >1100 mg/mL | <1.2 mg/mL | >1200 mg/mL | <1.2 mg/mL |  |  |  |  |  |  |  |  | 
10 | (7-Azabenzotriazol-1-yloxy)tris(pyrrolidino)phosphonium tris(pentafluoroethyl)trifluorophosphate [PyAOP-FAP] | >2000 mg/mL | >2000 mg/mL | >2000 mg/mL | >2000 mg/mL | <1.2 mg/mL | >2000 mg/mL |  |  |  |  |  |  |  |  |  | 
11 | CCOC(=O)C(C#N)=NO[C+](N(C)C)N1CCOCC1.F[P-](F)(F)(F)(F)F [COMU, (1-cyano-2-ethoxy-2-oxoethylideneaminooxy)dimethylaminomorpholinocarbenium hexafluorophosphate, reference compound] |  |  |  |  |  |  |  | 294 mg/mL | 82 mg/mL | 565 mg/mL | 530 mg/mL | < 1.2 mg/mL | 4.1 mg/mL | 3.2 mg/mL |  | 
12 | O-Pentafluorophenyl-N,N,N′,N′-tetramethyluronium tris(pentafluoroethyl)trifluorophosphate [PfTU-FAP] | >2000 mg/mL | 1000 mg/mL | >2000 mg/mL | >2000 mg/mL | <1.2 mg/mL | 1000 mg/mL | <1.2 mg/mL |  |  |  |  |  |  |  |  | 
13 | CN(C)C(On1nnc2ccccc2c1=O)=[N+](C)C.F[B-](F)(F)F [HDBTU, O-(3,4-dihydro-4-oxo-1,2,3-benzotriazin-3-yl)-N,N,N′,N′-tetramethyluronium tetrafluoroborate, reference compound] |  |  |  |  |  |  |  | 17 mg/mL | 3.75 mg/mL | 240 mg/mL | 250 mg/mL | < 1.2 mg/mL | < 3.3 mg/mL | < 1.2 mg/mL |  | 
14 | F[P-](F)(F)(F)(F)F.[O-][n+]1nn(C(N2CCCC2)=[N+]2CCCC2)c2ccccc21 [HBPyU, 1-(pyrrolidino(pyrrolidinium-1-ylidene)methyl)-1H-benzo-[d][1,2,3]triazole 3-oxide hexafluorophosphate, reference compound] |  |  |  |  |  |  |  | 118 mg/mL | 68.3 mg/mL | 510 mg/mL | 540 mg/mL | < 1.2 mg/mL | < 3.3 mg/mL | < 1.2 mg/mL |  | 
15 | 1-(Dimethylamino(dimethylammonium-1-yliden)methyl)-1H-azabenzo-[d][1,2,3]triazole 3-oxide tris(pentafluoroethyl)trifluorophosphate [ATU-FAP] | 67 mg/mL | <1.2 mg/mL | >2000 mg/mL | >2000 mg/mL | <1.2 mg/mL | 670 mg/mL | <1.2 mg/mL |  |  |  |  |  |  |  |  | 
16 | CCOC(=O)/C(C#N)=N/OC(N1CCOCC1)=[N+](C)C [COMU-FAP, (1-Cyano-2-ethoxy-2-oxoethylideneaminooxy)dimethylaminomorpholinocarbenium tris(pentafluoroethyl)trifluorophosphate] |  |  |  |  |  |  |  | > 2000 mg/mL | 180 mg/mL | 905 mg/mL | > 1500 mg/mL | 2.1 mg/mL | 349 mg/mL | 4.5 mg/mL |  | solubility improvement
17 | S-(1-Oxido-2-pyridyl)-N,N,N′,N′-tetramethylthiouronium tris(pentafluoroethyl)trifluorophosphate [OTT-FAP] | >2000 mg/mL | 690 mg/mL | >2000 mg/mL | >2000 mg/mL | <1.2 mg/mL | 1400 mg/mL | <1.2 mg/mL |  |  |  |  |  |  |  |  | 
18 | CN(C)C(n1n[n+]([O-])c2ccccc21)=[N+](C)C.F[P-](F)(F)(F)(F)F [HBTU, 1-(dimethylamino(dimethylamonium-1-ylidene)methyl)-1H-benzo[d][1,2,3]triazole 3-oxide hexafluorophosphate, reference compound] | <2.8 mg/mL | <1.1 mg/mL | 124 mg/mL | 200 mg/mL | <1.2 mg/mL | <3.6 mg/mL | <1.2 mg/mL |  |  |  |  |  |  |  |  | 
19 | CN(C)C(Sc1cccc[n+]1[O-])=[N+](C)C.F[P-](F)(F)(F)(F)F [HOTT, S-(1-oxido-2-pyridyl)-N,N,N′,N′-tetramethylthiouronium hexafluorophosphate, reference compound] |  |  |  |  |  |  |  | 180 mg/mL | 59 mg/mL | 810 mg/mL | 690 mg/mL | < 1.2 mg/mL | < 1.2 mg/mL | < 1.2 mg/mL |  | 
20 | (Benzotriazol-1-yloxy)tris(pyrrolidino)phosphonium tris(pentafluoroethyl)trifluorophosphate [PyBOP-FAP] | >1500 mg/mL | >1650 mg/mL | >1550 mg/mL | >1550 mg/mL | <1.2 mg/mL | >1500 mg/mL | 5.0 mg/mL |  |  |  |  |  |  |  |  | 

Source: patent US10544186B2, “Process for the synthesis of amide bonds with the aid of novel catalysts” (Merck Patent GmbH, priority 2016, dated 2020)
